Test results: ChEMBL document CHEMBL2203104, “Recent advances in antitubercular natural products” (Eur J Med Chem, 2012)
Values after ≈ are worked out from the molar mass of the structure shown.

Assays:
[1] = system: Mycobacterium tuberculosis; test: Antimycobacterial activity against Mycobacterium tuberculosis H37Ra; assay type: functional
[2] = system: Mycobacterium tuberculosis; test: Antimycobacterial activity against Mycobacterium tuberculosis H37Rv; assay type: functional; conditions: Mycobacterium tuberculosis, H37Rv; read-out: MIC

| Structure (SMILES) | MIC [1] [µg/mL] | MIC [2] |
| --- | --- | --- |
| CC(=O)O[C@@H]1C[C@H]2C(C)(C)C(=O)C=C[C@]2(C)[C@H]2CC[C@]3(C)C(=CC(=O)[C@H]3c3ccoc3)[C@@]21C [AZADIRADIONE] | 6.25 (≈ 13.9 µM) | – |
| CCCCC/C=C/C=C/C(=O)NCC(C)C [PELLITORIN] | 50 (≈ 224 µM) | – |
| C/C=C(\C)C(=O)C1=C2C3=COC(/C=C/[C@@H](C)CC)=CC3=C(Cl)C(=O)[C@@]2(C)OC1=O [CHAETOVIRIDIN E] | 50 (≈ 121 µM) | – |
| COc1c2ccoc2cc2oc(-c3ccccc3)cc(=O)c12 [PINNATIN] | 12.5 (≈ 42.8 µM) | – |
| COC(=O)/C=C/c1ccc(O)c(O)c1 [METHYLCAFFEATE] | 25 (≈ 129 µM) | – |
| COc1cc2oc(C)cc(=O)c2c(O)c1CC=C(C)C | 50 (≈ 182 µM) | – |
| COc1c(-c2ccc(O)cc2)oc2c3c(ccc2c1=O)OC(C)(C)[C@H](OC(C)=O)[C@@H]3OC(C)=O | 25 (≈ 53.4 µM) | – |
| C=C1C(=O)O[C@H]2[C@H]1[C@@H](OC(=O)/C(C)=C\C)C[C@@]1(C)OC(=CC1=O)C(=C)[C@H]2O [ISOCENTRATHERIN] | 3.1 (≈ 8.28 µM) | – |
| C=C1C(=O)O[C@@H]2/C=C(/CO)C3=CC(=O)[C@@](C)(C[C@H](OC(=O)/C(C)=C/C)[C@@H]12)O3 [LYCHNOPHOROLIDE B] | 6.2 (≈ 16.6 µM) | – |
| c1cc[n+]2c(c1)CCCCCCCCCCCCC[n+]1cccc(c1)CCCCCCCCCCCCC2 [CYCLOSTELLETAMINES C] | – | 4 µg/mL |
| C=C[C@]1(C)C2=C3c4c([nH]c5cccc(c45)C(C)(C)[C@H]3C[C@H]1Cl)C(C)(C)C(C#N)=C2 [AMBIGUINE G NITRILE] | – | 53.7 µM |
| C/C(=C\CO)CCC[C@H](C)CCC[C@H](C)CCCC(C)C [TRANS-PHYTOL] | – | 12.5 µg/mL |
| CC(C)=CCc1c(O)ccc(C(=O)/C=C/c2cc(O)c3c(c2)C=CC(C)(C)O3)c1O | – | 30 µg/mL |
| O=C1c2scnc2-c2nccc3c2c1nc1ccccc13 [KUANONIAMINE A] | – | 10.7 µM |
| [C-]#[N+][C@@]12CCC(=C)[C@H]3[C@H](CC(C)(C)NC(=O)CN4CCC4=O)C[C@H](C)[C@@H](CC[C@@H]1C)[C@@H]32 [MONAMPHILECTINE A] | – | 15.3 µg/mL |
| CC(C)C1=C(O)C(=O)C2=C(C1=O)[C@H](O)C[C@H]1C(C)(C)CCC[C@]21C [HORMINONE] | – | 25 µg/mL |
| C/C=C(C)/C=C(\C)C(O)C(C)[C@H](O)[C@@H](O)[C@H]1C/C=C\C=C\[C@H](O)C[C@@H](O)[C@H](C)c2nc(cs2)/C=C(\CCCCCC)C(=O)O1 (stereo not given in full) [THUGGACIN A] | – | 8 µg/mL |
| C[C@H](C/C=C/C(C)(C)OO)[C@H]1CC[C@@]2(C)[C@@H]3CC[C@H]4C(C)(C)[C@@H](O)CC[C@@]45C[C@@]35CC[C@]12C | – | 25 µg/mL |
| C=C(C)C(CC[C@@H](C)[C@H]1CC[C@@]2(C)[C@@H]3CC[C@H]4C(C)(C)[C@@H](O)CC[C@@]45C[C@@]35CC[C@]12C)OO (stereo not given in full) | – | 25 µg/mL |
| CC(=O)O[C@H]1C2=C(C(=O)C(O)=C(C(C)C)C2=O)[C@@]2(C)CCCC(C)(C)[C@@H]2[C@@H]1O | – | 25 µg/mL |
| COc1c2ccoc2nc2c3c(ccc12)OCO3 [KOKUSAGINE] | – | 16 µg/mL |
| COc1cc(C)c(C(=O)Oc2cc(C)c(C(=O)O)c(O)c2C)c(OC)c1C [DIFFRACTAIC ACID] | – | 15.6 µg/mL |
| O=C(CCCCCCCC[C@H]1C=CCC1)OCC(O)CO (stereo not given in full) [ANTHELMINTHICINS B] | – | 16.7 µM |
| Cl.Nc1ncc(C/C=C/NC(=O)c2cc(Br)c[nH]2)[nH]1 [HYMENIDINE] | – | 6.1 µg/mL |
| CCCCCCC1=C(O)CC(CCCCC)OC1=O (stereo not given) [PSEUDOPYRONINES A] | – | 3.12 µg/mL |
| CC(=O)NCCc1c2c(c3nccc4c3c1Nc1ccccc1-4)OCS2 [LISSOCLINIDINE] | – | 17 µM |
| COC1=CC(=O)c2c(O)cccc2C1=O | – | 30 µg/mL |
| CCOC(=O)CCCCCCCCCCCC[C@@H]1C=CCC1 [ETHYL CHAULMOOGRATE] | – | 9.82 µM |
| CC[C@H](CC[C@@H](C)[C@H]1CC[C@H]2[C@@H]3CC=C4CC(=O)CC[C@]4(C)[C@H]3CC[C@]12C)C(C)C [BETA-SITOSTENONE] | – | 39.5 µM |
| COC1=CC(=O)c2cccc(O)c2C1=O | – | 3.12 µg/mL |
